Reference: patent publication US8143408B2, “N-(8-heteroaryltetrahydronaphtalene-2yl) or N-(5-heteroarylchromane-3-yl) carboxamide derivatives for the treatment of pain” (AstraZeneca AB, priority 2007, dated 2012)

Molecular target: T1, Nav1.7 voltage-gated sodium channel (Homo sapiens, UniProt Q15858)
T1 construct: Gene(s) encoding the full-length protein of the voltage-gated sodium channel of interest are cloned and expressed; expressed in transfected cells
Assay: Whole-cell voltage clamp electrophysiology assay
Assay type: cell-based
Settings: cells stably expressing the voltage-gated sodium channel of interest
Method in brief: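 Cells expressing full-length channel, exposed to drug by integrated pipetting on automated patch-clamp platforms or by microperfusion in conventional whole-cell patch clamp. Channels activated by a voltage protocol depolarising from a defined holding potential; buffers per platform manufacturer.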

T1 sequence (Q15858 whole entry): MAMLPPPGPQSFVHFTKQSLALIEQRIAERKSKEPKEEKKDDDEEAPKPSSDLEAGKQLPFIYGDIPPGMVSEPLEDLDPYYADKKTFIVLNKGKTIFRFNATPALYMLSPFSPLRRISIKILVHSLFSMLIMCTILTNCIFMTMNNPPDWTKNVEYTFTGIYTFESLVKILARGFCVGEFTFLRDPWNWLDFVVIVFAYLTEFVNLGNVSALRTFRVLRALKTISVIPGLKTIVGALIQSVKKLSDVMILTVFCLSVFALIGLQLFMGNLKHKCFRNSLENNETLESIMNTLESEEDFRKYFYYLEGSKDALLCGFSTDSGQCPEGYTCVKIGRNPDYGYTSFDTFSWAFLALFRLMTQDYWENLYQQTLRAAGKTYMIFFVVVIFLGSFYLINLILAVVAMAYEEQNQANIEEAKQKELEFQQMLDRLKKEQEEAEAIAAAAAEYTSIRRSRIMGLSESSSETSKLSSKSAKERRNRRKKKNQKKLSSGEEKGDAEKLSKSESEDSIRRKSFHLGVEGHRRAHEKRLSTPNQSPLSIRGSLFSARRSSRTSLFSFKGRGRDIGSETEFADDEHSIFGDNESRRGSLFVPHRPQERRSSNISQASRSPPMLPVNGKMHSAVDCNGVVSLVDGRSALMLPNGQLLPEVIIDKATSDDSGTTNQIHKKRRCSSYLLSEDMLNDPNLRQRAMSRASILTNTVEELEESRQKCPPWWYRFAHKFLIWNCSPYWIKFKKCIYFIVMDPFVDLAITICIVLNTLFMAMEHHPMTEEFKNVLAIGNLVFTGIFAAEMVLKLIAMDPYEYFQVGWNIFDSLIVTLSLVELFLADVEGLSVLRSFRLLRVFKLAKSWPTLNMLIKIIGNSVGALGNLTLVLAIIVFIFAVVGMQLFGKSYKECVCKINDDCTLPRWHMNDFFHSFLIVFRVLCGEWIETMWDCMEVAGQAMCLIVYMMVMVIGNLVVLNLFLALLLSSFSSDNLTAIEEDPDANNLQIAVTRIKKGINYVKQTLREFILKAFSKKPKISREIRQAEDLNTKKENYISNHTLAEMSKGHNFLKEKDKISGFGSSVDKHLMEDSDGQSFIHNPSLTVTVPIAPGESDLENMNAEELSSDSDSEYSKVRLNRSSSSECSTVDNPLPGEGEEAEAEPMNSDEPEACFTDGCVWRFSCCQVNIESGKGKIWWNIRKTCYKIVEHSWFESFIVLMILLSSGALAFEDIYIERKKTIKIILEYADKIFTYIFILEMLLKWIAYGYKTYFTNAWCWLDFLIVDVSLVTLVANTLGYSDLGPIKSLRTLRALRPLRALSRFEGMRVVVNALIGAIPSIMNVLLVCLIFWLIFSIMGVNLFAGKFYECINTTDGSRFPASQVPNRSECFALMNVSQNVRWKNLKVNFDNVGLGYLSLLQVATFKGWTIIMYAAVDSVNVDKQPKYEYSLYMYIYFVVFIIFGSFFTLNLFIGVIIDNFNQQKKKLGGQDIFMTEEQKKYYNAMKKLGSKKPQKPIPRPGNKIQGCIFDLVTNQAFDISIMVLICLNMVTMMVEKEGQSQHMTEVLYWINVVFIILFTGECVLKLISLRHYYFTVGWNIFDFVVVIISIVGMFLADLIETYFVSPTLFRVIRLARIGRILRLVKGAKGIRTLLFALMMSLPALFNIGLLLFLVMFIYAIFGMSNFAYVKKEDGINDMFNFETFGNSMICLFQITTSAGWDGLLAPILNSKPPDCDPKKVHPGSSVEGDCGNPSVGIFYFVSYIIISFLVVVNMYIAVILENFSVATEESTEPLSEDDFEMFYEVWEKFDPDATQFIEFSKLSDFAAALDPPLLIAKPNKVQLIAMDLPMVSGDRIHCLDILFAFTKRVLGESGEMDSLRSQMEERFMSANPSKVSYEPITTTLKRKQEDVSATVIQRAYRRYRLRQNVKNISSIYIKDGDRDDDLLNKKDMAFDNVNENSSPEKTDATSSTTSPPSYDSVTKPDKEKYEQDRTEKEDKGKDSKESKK

Row | Compound | IC50
1 | CS(=O)(=O)c1ccc(-c2cccc3c2C[C@H](NC(=O)c2ccc(OCCOCC(F)(F)F)nc2)CO3)cn1 [Example 175, N-{(3S)-5-[6-(methylsulfonyl)pyridin-3-yl]-3,4-dihydro-2H-chromen-3-yl}-6-[2-(2,2,2-trifluoroethoxy)ethoxy]nicotinamide] | 2510 nM
2 | COc1ncc(-c2cccc3c2C[C@H](NC(=O)c2ccc(S(=O)(=O)C4CCCC4)nc2)CO3)cn1 [Example 181, 6-(cyclopentylsulfonyl)-N-[(3S)-5-(2-methoxypyrimidin-5-yl)-3,4-dihydro-2H-chromen-3-yl]nicotinamide] | 501 nM
3 | Cc1ncc(-c2cccc3c2C[C@H](NC(=O)c2ccc(C(=O)NCCC(F)(F)F)nc2)CO3)cn1 [Example 183, N^5-[(3S)-5-(2-methylpyrimidin-5-yl)-3,4-dihydro-2H-chromen-3-yl]-N^2-(3,3,3-trifluoropropyl)pyridine-2,5-dicarboxamide] | 316 nM
4 | COc1ncc(-c2cccc3c2C[C@H](NC(=O)c2ccc(OCCOC(C)C)nc2)CO3)cn1 [Example 184, 6-(2-isopropoxyethoxy)-N-[(3S)-5-(2-methoxypyrimidin-5-yl)-3,4-dihydro-2H-chromen-3-yl]nicotinamide] | 501 nM
5 | Cc1ncc(-c2cccc3c2C[C@H](NC(=O)c2ccc(C(=O)NCCCOC(C)C)nc2)CO3)cn1 [Example 186, N^2-(3-isopropoxypropyl)-N^5-[(3S)-5-(2-methylpyrimidin-5-yl)-3,4-dihydro-2H-chromen-3-yl]pyridine-2,5-dicarboxamide] | 2000 nM
6 | Cc1ncc(-c2cccc3c2C[C@H](NC(=O)c2ccc(C(=O)NCCCC(F)(F)F)nc2)CO3)cn1 [Example 188, N^5-[(3S)-5-(2-methylpyrimidin-5-yl)-3,4-dihydro-2H-chromen-3-yl]-N^2-(4,4,4-trifluorobutyl)pyridine-2,5-dicarboxamide] | 251 nM
7 | Cc1ncc(-c2cccc3c2C[C@H](NC(=O)c2ccc(OCCOCC(F)(F)F)nc2)CO3)cn1 [Example 189, N-[(3S)-5-(2-methylpyrimidin-5-yl)-3,4-dihydro-2H-chromen-3-yl]-6-[2-(2,2,2-trifluoroethoxy)ethoxy]nicotinamide] | 79.4 nM
8 | COc1ncc(-c2cccc3c2C[C@H](NC(=O)c2ccnc(OCCOCC(F)(F)F)c2)CC3)cn1 [Example 190, N-[(2R)-8-(2-methoxypyrimidin-5-yl)-1,2,3,4-tetrahydronaphthalen-2-yl]-2-[2-(2,2,2-trifluoroethoxy)ethoxy]isonicotinamide] | 7940 nM
9 | COc1ncc(-c2cccc3c2C[C@H](NC(=O)c2ccc(C(=O)N(C)CC(F)(F)F)nc2)CO3)cn1 [Example 191, N^5-[(3S)-5-(2-methoxypyrimidin-5-yl)-3,4-dihydro-2H-chromen-3-yl]-N^2-methyl-N^2-(2,2,2-trifluoroethyl)pyridine-2,5-dicarboxamide] | 794 nM
10 | COc1ncc(-c2cccc3c2C[C@H](NC(=O)c2cnc(NCCC(F)(F)F)nc2)CO3)cn1 [Example 195, N-[(3S)-5-(2-methoxypyrimidin-5-yl)-3,4-dihydro-2H-chromen-3-yl]-2-[(3,3,3-trifluoropropyl)amino]pyrimidine-5-carboxamide] | 398 nM
11 | CN(CC(F)(F)F)C(=O)c1ccc(C(=O)N[C@@H]2COc3cccc(-c4cnc(C5CC5)nc4)c3C2)cn1 [Example 196, N^5-[(3S)-5-(2-cyclopropylpyrimidin-5-yl)-3,4-dihydro-2H-chromen-3-yl]-N^2-methyl-N^2-(2,2,2-trifluoroethyl)pyridine-2,5-dicarboxamide] | 501 nM

The remaining compounds from weak to strong by IC50, led by results:

Row | IC50 | Compound
12 | 1580 nM | COc1ncc(-c2cccc3c2C[C@H](NC(=O)c2ccc(C(=O)NCCCOC(C)C)nc2)CO3)cn1 [Example 187, N^2-(3-isopropoxypropyl)-N^5-[(3S)-5-(2-methoxypyrimidin-5-yl)-3,4-dihydro-2H-chromen-3-yl]pyridine-2,5-dicarboxamide]
13 | 631 nM | COc1ncc(-c2cccc3c2C[C@H](NC(=O)c2ccc(C(=O)N(C)CC(F)(F)F)nc2)CO3)cc1F [Example 192, N^5-[(3S)-5-(5-fluoro-6-methoxypyridin-3-yl)-3,4-dihydro-2H-chromen-3-yl]-N^2-methyl-N^2-(2,2,2-trifluoroethyl)pyridine-2,5-dicarboxamide]
14 | 316 nM | COc1ncc(-c2cccc3c2C[C@H](NC(=O)c2ccc(OCCOCC(F)(F)F)nc2)CO3)cc1F [Example 180, N-[(3S)-5-(5-fluoro-6-methoxypyridin-3-yl)-3,4-dihydro-2H-chromen-3-yl]-6-[2-(2,2,2-trifluoroethoxy)ethoxy]nicotinamide]
15 | 316 nM | Cc1ncc(-c2cccc3c2C[C@H](NC(=O)c2ccc(OCCOC(C)C)nc2)CO3)cn1 [Example 185, 6-(2-isopropoxyethoxy)-N-[(3S)-5-(2-methylpyrimidin-5-yl)-3,4-dihydro-2H-chromen-3-yl]nicotinamide]
16 | 200 nM | CCc1ncc(-c2cccc3c2C[C@H](NC(=O)c2ccc(C(=O)NCCC(F)(F)F)nc2)CO3)cn1 [Example 174, N^5-[(3S)-5-(2-ethylpyrimidin-5-yl)-3,4-dihydro-2H-chromen-3-yl]-N^2-(3,3,3-trifluoropropyl)pyridine-2,5-dicarboxamide]
17 | 200 nM | COc1ncc(-c2cccc3c2C[C@H](NC(=O)c2ccc(C(=O)NCCC(F)(F)F)nc2)CO3)cc1F [Example 179, N^5-[(3S)-5-(5-fluoro-6-methoxypyridin-3-yl)-3,4-dihydro-2H-chromen-3-yl]-N^2-(3,3,3-trifluoropropyl)pyridine-2,5-dicarboxamide]
18 | 200 nM | COc1ncc(-c2cccc3c2C[C@H](NC(=O)c2ccc(COCC(F)(F)F)nc2)CO3)cn1 [Example 194, N-[(3S)-5-(2-methoxypyrimidin-5-yl)-3,4-dihydro-2H-chromen-3-yl]-6-[(2,2,2-trifluoroethoxy)methyl]nicotinamide]
19 | 158 nM | COc1ncc(-c2cccc3c2C[C@H](NC(=O)c2ccc(COCC(F)(F)F)nc2)CO3)cc1F [Example 193, N-[(3S)-5-(5-fluoro-6-methoxypyridin-3-yl)-3,4-dihydro-2H-chromen-3-yl]-6-[(2,2,2-trifluoroethoxy)methyl]nicotinamide]
20 | 126 nM | N#Cc1ccc(-c2cccc3c2C[C@H](NC(=O)c2ccc(OCCOCC(F)(F)F)nc2)CO3)cn1 [Example 176, N-[(3S)-5-(6-cyanopyridin-3-yl)-3,4-dihydro-2H-chromen-3-yl]-6-[2-(2,2,2-trifluoroethoxy)ethoxy]nicotinamide]
21 | 63.1 nM | CCc1ncc(-c2cccc3c2C[C@H](NC(=O)c2ccc(OCCOCC(F)(F)F)nc2)CO3)cn1 [Example 178, N-[(3S)-5-(2-ethylpyrimidin-5-yl)-3,4-dihydro-2H-chromen-3-yl]-6-[2-(2,2,2-trifluoroethoxy)ethoxy]nicotinamide]
22 | 63.1 nM | Cc1cncc(-c2cccc3c2C[C@H](NC(=O)c2ccc(OCCOCC(F)(F)F)nc2)CO3)n1 [Example 182, N-[(3S)-5-(6-methylpyrazin-2-yl)-3,4-dihydro-2H-chromen-3-yl]-6-[2-(2,2,2-trifluoroethoxy)ethoxy]nicotinamide]
23 | 50.1 nM | O=C(N[C@@H]1COc2cccc(-c3cnc(C4CC4)nc3)c2C1)c1ccc(OCCOCC(F)(F)F)nc1 [Example 177, N-[(3S)-5-(2-cyclopropylpyrimidin-5-yl)-3,4-dihydro-2H-chromen-3-yl]-6-[2-(2,2,2-trifluoroethoxy)ethoxy]nicotinamide]
